Assay results from patent US7485665B2, “Medicinal composition” (Nagase Chemtex Corporation, priority 2002, dated 2009).
Counter-ions that a name gives are not always drawn.

Legend:
beagle dogs [1] = assay: Repeated oral administration toxicity tests of TKS159 in beagle dogs (4, 13 and 52 weeks); assay type: in vivo
Experimental: Separately, beagle dogs (female and male) were divided into 4 groups consisting of 6, 4, 4 and 6 dogs and, among them, to 3 groups were repeatedly administered orally TKS 159 at a dose of 2.5, 6.0 and 15.0 mg/kg, and to a control group was repeatedly administered orally an excipient, for 13 weeks, and observation of the general status and various tests were performed. Further, regarding a control group and a case of a part of a 15.0 mg/kg administration group, after a repeated administration period for 13 weeks, a recovery test of no administration of a drug was performed for 4 weeks, and then the same test was performed. […] Separately, beagle dogs (female and male) were divided into 4 groups containing 5, 3, 3 and 5 dogs and, among them, to 3 groups was repeatedly administered orally TKS159 at a dose of 0.25, 0.75 and 2.25 mg/kg, to a control group was repeatedly administered an excipient orally, for 52 weeks, and observation of the general status and various tests were performed. Further, regarding a control group and a case of a part of a 2.25 mg/kg administration group, after a repeated administration period for 52 weeks, a recovery test of no administration of a drug was performed for 4 weeks, and then the same test was performed.

serotonin receptor 4 = molecular target: T1, serotonin receptor 4 (Cavia porcellus, UniProt O70528); assay: Binding affinity for serotonin receptor 4 ([3H]-GR113808 displacement); set-up: species or system guinea pig; settings: for IC50: guinea pig corpus striatum receptor sample, 0.1 nM [3H]-GR113808
T1 construct: centrifugation and suspension were repeated to prepare a serotonin receptor 4 sample; from tissue; host or cells: corpus striatum of Hartley male guinea pig (membrane homogenate)
T1 sequence (O70528 whole entry): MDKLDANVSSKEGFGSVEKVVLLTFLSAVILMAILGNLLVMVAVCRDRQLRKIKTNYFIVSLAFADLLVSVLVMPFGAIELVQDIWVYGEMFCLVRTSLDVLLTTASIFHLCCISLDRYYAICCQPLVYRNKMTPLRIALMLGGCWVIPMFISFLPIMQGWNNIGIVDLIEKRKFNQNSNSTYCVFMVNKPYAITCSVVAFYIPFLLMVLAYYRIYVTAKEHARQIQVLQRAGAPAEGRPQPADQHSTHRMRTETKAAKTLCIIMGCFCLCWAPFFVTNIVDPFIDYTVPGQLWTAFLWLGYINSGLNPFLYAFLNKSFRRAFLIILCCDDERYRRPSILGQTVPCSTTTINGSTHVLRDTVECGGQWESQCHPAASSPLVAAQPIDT
Experimental: Corpus striatum extracted from a Hartley male guinea pig was homogenized in a 50 mM HEPES-NaOH buffer (pH 7.4), and centrifugation and suspension were repeated to prepare a serotonin receptor 4 sample. The receptor sample was reacted with a solution containing a 0.1 nM radioactive ligand of [^3H]-GR113808 and the specimen drug obtained in Example 9 at a prescribed concentration. Then, the solution was filtered by suction using a multifilter MF-12G (glass filter (provided with Whatman GFIC)), and radioactivity of the filter was measured using a scintillation counter (LS6500 Beckman), so that affinity of the specimen drug for a serotonin receptor 4 was measured. Separately, the same procedure was also performed regarding TKS159 hydrochloride, and the affinity was compared.

[2] = tested on: esophagus sample extracted from a rat; assay: Relaxation reaction in rat-extracted esophagus muscularis mucosae sample contracted with carbachol; settings: for EC50: Wistar rat esophagus muscularis mucosae, 3x10^-6 M carbachol, 1 μM methysergide, ketanserin and granisetron present
Experimental: Regarding the drug obtained in Example 9, a degree of action of promoting the movement of the digestive tract was measured using an esophagus sample extracted from a rat.
An esophagus in a chest cavity was extracted from a Wistar male rat, and muscularis propria sample containing longitudinal muscle and circular muscle was removed to prepare a muscularis mucosae sample having a length of about 2 cm. The sample was immersed in a nutrient solution (containing NaCl 118.5, KCl 4.7, CaCl2 1.3, MgSO4 0.6, NaHCO3 25.0, KH2PO4 1.2, and glucose 11.1 (unit mM)), and constriction of the sample and stability of the constriction were confirmed at 32°C using 3x10 ^-6M carbachol while a 95% 02/5% Co2 mixed gas was flown, each 1 μM of methysergide, ketanserin and granisetron were added, the drug obtained in Example 9 was accumulatively applied at a common ratio of 3 after 30 minutes, and a degree of relaxation was isotonically (stationary tension; about 0.5 g) measured via a transducer. Separately, the same procedure was also performed regarding TKS159 hydrochloride, and an intensity of the action was compared.

dopamine D2 receptor = molecular target: T2, dopamine D2 receptor (Rattus norvegicus, UniProt P61169); assay: Binding affinity for dopamine D2 receptor ([3H]-spiperone displacement); settings: for IC50: Wistar rat corpus striatum receptor sample, 0.25 nM [3H]-spiperone
T2 construct: centrifugation and suspension were repeated to prepare a dopamine D2 receptor sample; from tissue; host or cells: corpus striatum of Wistar male rat (membrane homogenate)
T2 sequence (P61169 whole entry): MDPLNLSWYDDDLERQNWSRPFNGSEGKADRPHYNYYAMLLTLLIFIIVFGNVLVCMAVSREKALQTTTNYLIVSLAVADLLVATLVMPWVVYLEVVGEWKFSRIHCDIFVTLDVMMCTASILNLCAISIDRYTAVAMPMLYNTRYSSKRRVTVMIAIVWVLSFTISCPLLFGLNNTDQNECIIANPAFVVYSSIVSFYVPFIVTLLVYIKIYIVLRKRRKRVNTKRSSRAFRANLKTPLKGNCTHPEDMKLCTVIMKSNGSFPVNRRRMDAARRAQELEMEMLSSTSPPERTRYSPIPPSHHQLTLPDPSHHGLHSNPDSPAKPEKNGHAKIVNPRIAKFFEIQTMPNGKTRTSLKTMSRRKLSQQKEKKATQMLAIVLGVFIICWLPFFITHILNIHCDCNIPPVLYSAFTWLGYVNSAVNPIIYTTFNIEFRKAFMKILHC
Experimental: Corpus striatum extracted from a Wistar male rat was homogenized in a 50 mM Tris-HCl buffer (pH 7.7), and centrifugation and suspension were repeated to prepare a dopamine D2 receptor sample. The receptor sample was reacted with a solution containing a 0.25 nM radioactive ligand of [^3H]-spiperone and the specimen drug obtained in Example 9 at a prescribed concentration. Then, the solution was filtered by suction using a multifilter MF-12G (glass filter (provided with Whatman GF/C)), and radioactivity of the filter was measured using a scintillation counter (LS6500 Beckman), so that affinity of the specimen drug for a dopamine D2 receptor was measured. Separately, the same procedure was also performed regarding TKS159 hydrochloride, and the affinity was compared.

ddy male mouse = assay: Acute toxicity in mouse, oral and intravenous administration; assay type: in vivo
Experimental: Using a ddy male mouse, the drug obtained in Example 9 and TKS159 were suspended in 0.5% methylcellulose for oral administration, and were dissolved in a physiological saline for intravenous administration. This was administered by a forced oral administration method and an intravenous administration method using a probe, and acute toxicity was observed.

Sprague-Dawley male rats = assay: 28-day repeated oral administration to rats, necropsy and pathohistological test; assay type: in vivo; settings: rat, oral 300, 1000 or 2000 mg/kg once a day for 28 days
Experimental: Five Sprague-Dawley male rats, 4 week age, weighing each 160.3 to 169.5 g, were reared for 8 days for quarantine and training were handled as one group, and they were grouped into four groups of a control group, a 300 mg/kg administration, a 1000 mg/kg administration, and a 2000 mg/kg administration. 4-Amino-5-chloro-2-methoxy-N-[(2S,4S)-2-hydroxymethyl-4-pyrrolidinyl] benzamide monohydrochloride obtained in Example 9 was ground with a mortar, the powder was added so that the compound was contained at 300 mg, 1000 mg or 2000 mg in 10 ml of a 0.5% aqueous methylcellulose solution (manufactured by Wako Pure Chemical Industries, Ltd.; prepared using Japanese Pharmacopoeia injectable water), and the solution was stirred to prepare an administration specimen. Administration specimens for 7 days were prepared at one time, once per week, stored in a refrigerator, and used. One-time dose was defined to be 10 ml/kg, and the specimen was forcibly administered orally at 9 o'clock to 12 o'clock for 28 days once a day using a rat stomach tube. Only a 0.5% aqueous methylcellulose solution was administered at 10 ml/kg to a control group.
During training and drug administration period, a solid feed (CE-2 manufactured by CLEA Japan Inc.) and tap water were freely given.

beagle dogs [3] = assay: 4-week repeated oral administration to beagle dogs, necropsy and pathohistological test; assay type: in vivo; settings: beagle dog, oral 100 mg/kg once a day for 4 weeks
Experimental: Using three beagle dogs as a test animal, 4-amino-5-chloro-2-methoxy-N-[(2S,4S)-2-hydroxymethyl-4-pyrrolidinyl]benzamide monohydrochloride obtained in Example 9 was repeatedly administered orally at a dose of 100 mg/kg once a day for 4 weeks. Thereafter, the animals were sacrificed by exsanguination from carotid artery under anesthesia, and the brain, aorta, heart, lung, and liver were extracted. These organs were examined with naked eyes, fixed with a 0.1% phosphate-buffered 10% formalin solution, and stored. Each organ was embedded in paraffin, and sliced to prepare a hematoxine orange-stained sample. Pathohistological test on the sections was performed using a light microscope.

[4] = beagle dogs, 13 weeks, 15.0 mg/kg group
[5] = beagle dogs, 52 weeks, 2.25 mg/kg group
[6] = male beagle dogs, 4 weeks, 100 mg/kg group

For `CCN1C[C@@H](NC(=O)c2cc(Cl)c(N)cc2OC)C[C@H]1CO` [TKS159, 4-Amino-5-chloro-2-methoxy-N-[(2S,4S)-1-ethyl-2-hydroxymethyl-4-pyrrolidinyl]benzamide], the “findings in other one case” value (beagle dogs [1]; [4]) was “necrosis of an artery septum and surrounding cell infiltration were recognized”, the “findings in two cases” value (beagle dogs [1]; [4]) was “arteritis was recognized” and the arteritis findings (beagle dogs [1]; [5]) was “arteritis was observed in thighbone marrow and mediastinal lymph node in one case among male 5 cases”. The malacia findings (beagle dogs [1]; [5]) was “malacia was seen in piriform lobe and hippocampus in other one case”, the “findings in death case” value (beagle dogs [1]; [6]) was “thrombus formation was recognized in a lung artery and a heart coronary artery, and slight bleeding was recognized in a cavity surrounding a blood vessel in a cerebral parenchyma” and the “findings in survival case” value (beagle dogs [1]; [6]) was “big thrombus formation was recognized in a left ventricle, and thrombus formation was recognized in a kidney arcuate artery and an interlobar artery”.
`CCN1CC(NC(=O)c2cc(Cl)c(N)cc2OC)CC1CO` (stereo not drawn) [TKS159 hydrochloride] showed an IC50 (serotonin receptor 4) of 450 nM, an EC50 [2] of 1100 nM and an IC50 (dopamine D2 receptor) of 3800 nM. The Survival (ddy male mouse; intravenous administration, 132 mg/kg) was “No survival among 6” and the Survival (ddy male mouse; oral administration, 1080 mg/kg) was “No survival among 2”.
`COc1cc(N)c(Cl)cc1C(=O)N[C@@H]1CN[C@H](CO)C1.Cl` [Example 9, 4-amino-5-chloro-2-methoxy-N-[(2S,4S)-2-hydroxymethyl-4-pyrrolidinyl]benzamide monohydrochloride] was tested, and the “affinity for a serotonin receptor 4 as compared with TK5159 hydrochloride” value (serotonin receptor 4; FIG. 1) was “stronger”, the IC50 (serotonin receptor 4) was 250 nM and the “organs observed with naked eyes” value (Sprague-Dawley male rats) was “Abnormality was not seen with naked eyes in any organ”. For the same compound, the pathohistological test (Sprague-Dawley male rats) was “encephalomalacia, arteritis and thrombus formation were not recognized”, the “relaxing action as compared with TKS159 hydrochloride” value ([2]; FIG. 3) was “stronger” and the EC50 [2] was 700 nM. For the same compound, the pathohistological test (beagle dogs [3]) was “encephalomalacia, arteritis and thrombus formation were not recognized”, the “organs examined with naked eyes” value (beagle dogs [3]; brain, aorta, heart, lung, liver) was “Abnormality was not seen in any organ” and the “affinity for a dopamine D2 receptor as compared with TKS159 hydrochloride” value (dopamine D2 receptor; FIG. 2) was “weaker”. It also gave an IC50 (dopamine D2 receptor) of 34000 nM.
